Experimental data published in publication PMC10190190 (Journal of Enzyme Inhibition and Medicinal Chemistry, 2023).

Tests used:
Assay type in all cases: biochemical
HDAC7 = target: T1, HDAC7 (Homo sapiens, UniProt Q8WUI4); assay: HDAC activity assay, HDAC7
T1 sequence (Q8WUI4 1-952): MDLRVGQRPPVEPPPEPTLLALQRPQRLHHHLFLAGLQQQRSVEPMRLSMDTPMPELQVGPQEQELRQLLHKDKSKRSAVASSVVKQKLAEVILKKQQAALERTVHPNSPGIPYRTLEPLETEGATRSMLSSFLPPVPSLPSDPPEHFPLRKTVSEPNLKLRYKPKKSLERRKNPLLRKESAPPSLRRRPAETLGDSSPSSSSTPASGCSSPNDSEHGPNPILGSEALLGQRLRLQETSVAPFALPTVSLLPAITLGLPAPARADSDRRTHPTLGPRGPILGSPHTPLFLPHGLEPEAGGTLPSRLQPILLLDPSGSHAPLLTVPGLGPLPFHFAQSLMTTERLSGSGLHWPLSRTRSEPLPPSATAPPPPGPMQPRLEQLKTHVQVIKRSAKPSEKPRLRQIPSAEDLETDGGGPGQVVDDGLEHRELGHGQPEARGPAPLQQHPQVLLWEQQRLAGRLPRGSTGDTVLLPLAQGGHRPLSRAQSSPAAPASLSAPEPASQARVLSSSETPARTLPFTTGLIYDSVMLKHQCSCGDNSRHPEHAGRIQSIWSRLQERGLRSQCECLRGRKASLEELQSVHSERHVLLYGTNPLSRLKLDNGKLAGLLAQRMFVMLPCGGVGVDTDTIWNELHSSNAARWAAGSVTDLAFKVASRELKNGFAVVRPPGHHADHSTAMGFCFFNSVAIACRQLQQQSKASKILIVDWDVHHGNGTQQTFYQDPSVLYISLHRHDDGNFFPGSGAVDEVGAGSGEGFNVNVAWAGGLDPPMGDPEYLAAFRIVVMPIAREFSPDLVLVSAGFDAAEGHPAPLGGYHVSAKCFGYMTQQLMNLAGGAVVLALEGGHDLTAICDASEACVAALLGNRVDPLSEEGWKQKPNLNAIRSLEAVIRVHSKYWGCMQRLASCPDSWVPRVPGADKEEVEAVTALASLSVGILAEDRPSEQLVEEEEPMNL

HDAC4 = HDAC4 (Homo sapiens, UniProt P56524); assay: HDAC activity assay, HDAC4
Sequence of HDAC4 (P56524 whole entry, species assumed): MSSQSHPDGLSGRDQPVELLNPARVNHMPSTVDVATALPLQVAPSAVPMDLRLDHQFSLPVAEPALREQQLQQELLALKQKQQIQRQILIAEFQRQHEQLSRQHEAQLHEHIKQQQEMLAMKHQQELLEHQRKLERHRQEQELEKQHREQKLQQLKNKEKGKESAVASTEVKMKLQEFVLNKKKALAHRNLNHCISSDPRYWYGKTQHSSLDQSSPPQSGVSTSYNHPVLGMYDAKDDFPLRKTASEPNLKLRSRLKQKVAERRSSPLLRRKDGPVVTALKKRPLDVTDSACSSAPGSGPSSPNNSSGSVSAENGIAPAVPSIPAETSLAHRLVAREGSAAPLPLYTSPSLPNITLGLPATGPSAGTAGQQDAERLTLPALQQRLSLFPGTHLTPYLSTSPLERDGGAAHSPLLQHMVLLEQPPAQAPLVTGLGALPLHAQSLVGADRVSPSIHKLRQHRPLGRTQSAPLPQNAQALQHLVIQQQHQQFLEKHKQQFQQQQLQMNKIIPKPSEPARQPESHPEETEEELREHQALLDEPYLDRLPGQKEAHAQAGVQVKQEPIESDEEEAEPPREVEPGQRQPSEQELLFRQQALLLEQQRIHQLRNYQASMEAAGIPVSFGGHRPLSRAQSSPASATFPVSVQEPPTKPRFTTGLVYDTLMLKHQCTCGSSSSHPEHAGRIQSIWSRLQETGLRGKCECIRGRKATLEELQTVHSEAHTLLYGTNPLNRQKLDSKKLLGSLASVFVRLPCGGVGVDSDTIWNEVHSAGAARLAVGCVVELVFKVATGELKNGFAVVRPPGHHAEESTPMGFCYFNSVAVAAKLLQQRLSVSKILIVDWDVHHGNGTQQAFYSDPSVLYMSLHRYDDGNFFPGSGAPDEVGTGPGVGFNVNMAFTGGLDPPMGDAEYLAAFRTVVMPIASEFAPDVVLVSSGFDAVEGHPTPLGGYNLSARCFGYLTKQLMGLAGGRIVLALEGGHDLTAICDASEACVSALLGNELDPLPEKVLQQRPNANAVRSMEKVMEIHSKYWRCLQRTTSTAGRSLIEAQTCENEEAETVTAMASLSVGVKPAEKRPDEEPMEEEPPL

HDAC6 = target: T2, HDAC6 (Homo sapiens, UniProt Q9UBN7); assay: HDAC activity assay, HDAC6
T2 sequence (Q9UBN7 1-1215): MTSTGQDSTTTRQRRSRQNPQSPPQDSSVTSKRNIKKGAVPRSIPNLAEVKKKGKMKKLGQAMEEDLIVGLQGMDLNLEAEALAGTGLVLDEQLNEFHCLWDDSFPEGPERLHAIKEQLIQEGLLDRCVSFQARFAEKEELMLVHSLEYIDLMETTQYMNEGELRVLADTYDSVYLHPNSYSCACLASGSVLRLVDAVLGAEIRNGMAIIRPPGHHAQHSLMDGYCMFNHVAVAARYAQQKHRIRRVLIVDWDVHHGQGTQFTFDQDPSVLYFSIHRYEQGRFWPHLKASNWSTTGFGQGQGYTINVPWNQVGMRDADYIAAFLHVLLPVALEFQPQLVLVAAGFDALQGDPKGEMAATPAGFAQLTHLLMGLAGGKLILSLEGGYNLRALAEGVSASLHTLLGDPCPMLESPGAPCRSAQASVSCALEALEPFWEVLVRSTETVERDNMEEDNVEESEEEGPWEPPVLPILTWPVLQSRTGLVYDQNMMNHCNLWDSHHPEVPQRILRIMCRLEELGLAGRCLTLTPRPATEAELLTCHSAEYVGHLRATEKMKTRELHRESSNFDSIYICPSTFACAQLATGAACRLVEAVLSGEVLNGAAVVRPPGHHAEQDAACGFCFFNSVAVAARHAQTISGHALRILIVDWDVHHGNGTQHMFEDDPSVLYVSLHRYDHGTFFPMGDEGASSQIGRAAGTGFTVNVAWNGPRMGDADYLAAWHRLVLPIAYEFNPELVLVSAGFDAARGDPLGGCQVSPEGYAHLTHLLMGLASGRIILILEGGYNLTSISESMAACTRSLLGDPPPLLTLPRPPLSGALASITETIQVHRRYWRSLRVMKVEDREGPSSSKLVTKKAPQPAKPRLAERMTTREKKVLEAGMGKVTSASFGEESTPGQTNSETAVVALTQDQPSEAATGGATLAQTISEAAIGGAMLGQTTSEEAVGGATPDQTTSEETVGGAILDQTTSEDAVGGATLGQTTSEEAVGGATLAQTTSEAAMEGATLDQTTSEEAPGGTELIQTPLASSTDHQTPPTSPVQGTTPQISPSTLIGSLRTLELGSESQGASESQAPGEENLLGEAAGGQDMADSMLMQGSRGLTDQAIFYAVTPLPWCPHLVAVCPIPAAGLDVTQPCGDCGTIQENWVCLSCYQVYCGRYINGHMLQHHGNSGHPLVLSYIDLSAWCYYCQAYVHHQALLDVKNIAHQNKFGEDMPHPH

HDAC9 = HDAC9 (Homo sapiens, UniProt Q9UKV0); assay: HDAC activity assay, HDAC9
Sequence of HDAC9 (Q9UKV0 whole entry): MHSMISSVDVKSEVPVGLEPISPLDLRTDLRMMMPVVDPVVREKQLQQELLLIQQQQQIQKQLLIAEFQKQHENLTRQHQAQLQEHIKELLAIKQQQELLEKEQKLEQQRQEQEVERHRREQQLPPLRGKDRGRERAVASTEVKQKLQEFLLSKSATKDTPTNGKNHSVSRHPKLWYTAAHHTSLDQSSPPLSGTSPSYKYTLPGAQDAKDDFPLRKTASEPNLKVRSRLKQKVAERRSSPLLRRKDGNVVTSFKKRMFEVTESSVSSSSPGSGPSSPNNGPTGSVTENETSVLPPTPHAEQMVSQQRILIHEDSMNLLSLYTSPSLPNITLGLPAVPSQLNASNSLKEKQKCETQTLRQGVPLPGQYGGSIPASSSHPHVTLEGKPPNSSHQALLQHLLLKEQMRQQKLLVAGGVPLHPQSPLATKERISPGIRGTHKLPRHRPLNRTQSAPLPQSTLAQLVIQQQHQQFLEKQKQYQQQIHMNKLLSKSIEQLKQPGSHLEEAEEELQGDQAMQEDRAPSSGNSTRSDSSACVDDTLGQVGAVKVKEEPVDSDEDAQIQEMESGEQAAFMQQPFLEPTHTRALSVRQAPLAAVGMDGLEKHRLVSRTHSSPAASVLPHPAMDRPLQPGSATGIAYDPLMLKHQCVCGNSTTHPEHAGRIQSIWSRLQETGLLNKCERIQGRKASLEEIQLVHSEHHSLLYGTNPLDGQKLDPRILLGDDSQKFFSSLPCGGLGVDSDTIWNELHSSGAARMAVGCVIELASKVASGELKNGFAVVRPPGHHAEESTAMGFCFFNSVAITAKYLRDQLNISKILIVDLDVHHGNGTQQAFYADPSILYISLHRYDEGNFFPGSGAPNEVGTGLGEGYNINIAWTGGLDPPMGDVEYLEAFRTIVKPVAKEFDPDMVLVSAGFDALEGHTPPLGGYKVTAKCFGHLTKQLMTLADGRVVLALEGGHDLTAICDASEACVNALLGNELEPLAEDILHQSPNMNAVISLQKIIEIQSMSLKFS

| SMILES | IC50 (HDAC7) [nM] | IC50 (HDAC4) [nM] | IC50 (HDAC6) [nM] | IC50 (HDAC9) [nM] |
| --- | --- | --- | --- | --- |
| O=C(NO)c1ccc(CN2c3ccccc3Oc3cc(Br)ccc32)cc1 [Compound 18, N-Hydroxy-4-[(3-bromo-10H-phenoxazin-10-yl)methyl]benzamide] | 1750 ± 10 | 3180 ± 330 | 15 | 1560 ± 190 |
| O=C(NO)c1ccc(CN2c3ccccc3Oc3ccccc32)cc1 [Compound 7a, N-Hydroxy-4-[(10H-phenoxazin-10-yl)methyl]benzamide] | 790 ± 30 | 4320 ± 110 | 17 ± 3 | 2200 ± 10 |
| NC(=O)c1ccc2c(c1)Oc1ccccc1N2Cc1ccc(C(=O)NO)cc1 [Compound 7e, N-Hydroxy-4-[(3-carbamoyl-10H-phenoxazin-10-yl)methyl]benzamide] | 520 ± 10 | 1410 ± 180 | 8 | 1040 ± 200 |
| N#Cc1ccc2c(c1)Oc1ccccc1N2Cc1ccc(C(=O)NO)cc1 [Compound 16, N-Hydroxy-4-[(3-cyano-10H-phenoxazin-10-yl)methyl]benzamide] | 1220 ± 320 | 3230 ± 590 | 20 | 4080 ± 200 |
| O=C(NO)c1ccc(CN2c3ccccc3Oc3cc(-c4ccccc4)ccc32)cc1 [Compound 20, N-Hydroxy-4-[(3-phenyl-10H-phenoxazin-10-yl)methyl]benzamide] | 5120 ± 20 | 8060 ± 210 | 23 ± 3 | 6320 ± 2060 |

Results, then the compound that gave them:

| IC50 (HDAC7) [nM] | IC50 (HDAC4) [nM] | IC50 (HDAC6) [nM] | IC50 (HDAC9) [nM] | SMILES |
| --- | --- | --- | --- | --- |
| 460 ± 20 | 2070 ± 140 | 74.8 ± 2 | 15200 ± 500 | O=C(NO)c1ccc(CN2c3ccccc3Oc3cc(C(=O)Nc4ccc(C(=O)c5ccccc5)cc4)ccc32)cc1 [Compound 12c, N-Hydroxy-4-{[3–(4-benzoylphenyl)carbamoyl-phenoxazin-10-yl]methyl}benzamide] |
| 1580 ± 300 | 2940 ± 520 | 43.1 ± 3 | 3640 ± 60 | O=C(NO)c1ccc(CN2c3ccccc3Oc3cc(C(=O)Nc4ccccc4)ccc32)cc1 [Compound 12d, N-Hydroxy-4-[(3-phenylcarbamoylphenoxazin-10-yl)methyl]benzamide] |
| 2260 ± 10 | 3660 ± 220 | 46 ± 2 | 3490 ± 700 | O=C(NO)c1ccc(CN2c3ccccc3Oc3ccc(C(=O)Nc4ccccc4)cc32)cc1 [Compound 12b, N-Hydroxy-4-[(2-phenylcarbamoylphenoxazin-10-yl)methyl]benzamide] |
